# Target: T1, STAT6 (endogenous, HiBiT-tagged) in HeLa LgBiT clone 4.14 cells (Homo sapiens, UniProt P42226)
# T1 construct: These cells express endogenous STAT6; host or cells: HeLa LgBiT clone 4.14
# T1 sequence (P42226 1-847): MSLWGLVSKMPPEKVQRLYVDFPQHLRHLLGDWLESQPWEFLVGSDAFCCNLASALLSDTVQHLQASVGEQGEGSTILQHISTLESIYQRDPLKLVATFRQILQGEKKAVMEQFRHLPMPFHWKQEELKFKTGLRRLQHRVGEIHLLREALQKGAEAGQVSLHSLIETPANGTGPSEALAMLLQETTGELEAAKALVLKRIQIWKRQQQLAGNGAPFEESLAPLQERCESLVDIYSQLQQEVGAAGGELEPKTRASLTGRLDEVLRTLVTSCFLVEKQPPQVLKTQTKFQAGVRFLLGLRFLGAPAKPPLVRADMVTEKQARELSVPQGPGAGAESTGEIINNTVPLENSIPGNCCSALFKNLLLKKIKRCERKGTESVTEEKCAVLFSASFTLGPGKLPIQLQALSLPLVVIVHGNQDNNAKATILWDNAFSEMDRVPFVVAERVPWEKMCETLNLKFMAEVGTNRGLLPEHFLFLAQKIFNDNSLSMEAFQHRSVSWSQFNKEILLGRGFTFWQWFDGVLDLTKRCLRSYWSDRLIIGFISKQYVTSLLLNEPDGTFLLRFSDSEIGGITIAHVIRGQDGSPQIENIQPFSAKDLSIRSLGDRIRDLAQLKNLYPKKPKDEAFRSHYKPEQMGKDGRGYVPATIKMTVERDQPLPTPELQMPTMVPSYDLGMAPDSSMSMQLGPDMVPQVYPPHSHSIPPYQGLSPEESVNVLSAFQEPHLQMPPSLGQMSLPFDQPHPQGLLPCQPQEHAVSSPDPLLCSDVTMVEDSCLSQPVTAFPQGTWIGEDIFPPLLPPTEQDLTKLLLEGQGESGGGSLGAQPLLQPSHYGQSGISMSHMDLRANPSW
# Test: STAT6 Degrader Assay (HiBiT based, HeLa LgBiT clone 4.14 cells, luminescence, DC50)
# Assay type: cell-based
# Settings: DC50 provided for test compounds with >80% Emax, geometric mean, read-out: STAT6 degradation DC50
# Outline: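 HeLa LgBiT clone 4.14 cells carry CRISPR-inserted HiBiT on endogenous STAT6; 5000 cells/well were exposed to compound for 4-24 h at 37 °C, 5% CO2. Nano-Glo substrate added for 0.5 h; luminescence reflects remaining STAT6, with terfenadine ([…]) wells defining 100% degradation.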
row,Structure (SMILES),DC50 [nM]
1,"Cn1c(CN2CCC(c3ccc(C(=O)N4CCC(CN5CCC(N6CCC(c7ccc(NC8CCC(=O)NC8=O)cc7F)CC6)C(F)(F)C5)CC4)cc3)CC2)cc2c(-c3ccc(N)nc3)ccnc21 (stereo not shown) [Example 2h2, 3-((4-(1′-((1-(4-(1-((4-(6-aminopyridin-3-yl)-1-methyl-1H-pyrrolo[2,3-b]pyridin-2-yl)-methyl)piperidin-4-yl)benzoyl)piperidin-4-yl)methyl)-3′, 3′-difluoro-[1,4′-bipiperidin]-4-yl)-3-fluoro-phenyl)amino)piperidine-2,6-dione]",133
2,"COCc1nc2cc(-c3ccnc4c3cc(CN3CCC(c5ccc(C(=O)N6CCC(CN7CCC(N8CCC(c9ccc(NC%10CCC(=O)NC%10=O)cc9F)CC8)C(F)(F)C7)CC6)cc5)CC3)n4C)ccc2[nH]1 (stereo not shown) [Example 2h3, 3-((4-(3′, 3′-difluoro-1′-((1-(4-(1-((4-(2-(methoxymethyl)-1H-benzo[d]imidazol-5-yl)-1-methyl-1H-pyrrolo[2,3-b]pyridin-2-yl)methyl)piperidin-4-yl)benzoyl)piperidin-4-yl)methyl)-[1,4′-bipiperidin]-4-yl)-3-fluorophenyl)amino)piperidine-2,6-dione]",54.8
3,"COCc1nc2cc(-c3ccnc4c3cc([C@H](C)N3CCC(c5ccc(C(=O)N6CCC(CN7CCN(c8ccc(NC9CCC(=O)NC9=O)cc8C(F)(F)F)CC7)CC6)cc5)CC3)n4C)ccc2[nH]1 (stereo partly drawn) [Example 2i5, 3-((4-(4-((1-(4-(1-((S)-1-(4-(2-(methoxymethyl)-1H-benzo[d]imidazol-5-yl)-1-methyl-1H-pyrrolo[2,3-b]pyridin-2-yl)ethyl)piperidin-4-yl)benzoyl)piperidin-4-yl)methyl)piperazin-1-yl)-3-(trifluoromethyl)phenyl)amino)piperidine-2,6-dione]",34
4,"COCc1nc2cc(-c3ccnc4c3cc([C@H](C)N3CCC(c5ccc(C(=O)N6CCC(CN7CCC(c8ccc(NC9CCC(=O)NC9=O)cc8F)C(F)(F)C7)CC6)cc5)CC3)n4C)ccc2[nH]1 (stereo partly drawn) [Example 2m3, 3-((4-(3,3-difluoro-1-((1-(4-(1-((S)-1-(4-(2-(methoxymethyl)-1H-benzo[d]imidazol-5-yl)-1-methyl-1H-pyrrolo[2,3-b]pyridin-2-yl)ethyl)piperidin-4-yl)benzoyl)piperidin-4-yl)methyl)piperidin-4-yl)-3-fluorophenyl)amino)piperidine-2,6-dione]",23.5

# Second part, the compound after the results:
row,DC50 [nM],Structure (SMILES)
1,7.6,"COCc1nc2cc(-c3ccnc4c3cc([C@H](C)N3CCC(c5ccc(C(=O)N6CCC(CN7CCN(c8ccc(NC9CCC(=O)NC9=O)cc8Cl)CC7)CC6)cc5)CC3)n4C)ccc2[nH]1 (stereo partly drawn) [Example 2i4, 3-((3-chloro-4-(4-((1-(4-(1-((S)-1-(4-(2-(methoxymethyl)-1H-benzo[d]imidazol-5-yl)-1-methyl-1H-pyrrolo[2,3-b]pyridin-2-yl)ethyl)piperidin-4-yl)benzoyl)piperidin-4-yl)methyl)piperazin-1-yl)phenyl)amino)piperidine-2,6-dione]"
2,28.8,"Cn1c(CN2CCC(c3ccc(C(=O)N4CCC(CN5CCN(c6ncc(NC7CCC(=O)NC7=O)cn6)CC5)CC4)cc3)CC2)cc2c(-c3ccc4[nH]ncc4c3)ccnc21 (stereo not shown) [Example 2k1, 3-((2-(4-((1-(4-(1-((4-(1H-indazol-5-yl)-1-methyl-1H-pyrrolo[2,3-b]pyridin-2-yl)methyl)-piperidin-4-yl)benzoyl)piperidin-4-yl)methyl)piperazin-1-yl)pyrimidin-5-yl)amino)piperidine-2,6-dione]"

# Same assay, conditions: Emax provided for test compounds with <80% Emax (and 2c15), geometric mean, read-out: STAT6 degradation Emax
row,Structure (SMILES),Emax [%]
1,"COCc1nc2cc(-c3ccnc4c3cc([C@H](C)N3CCC(c5ccc(C(=O)N6CCC(CN7CCN(c8ccc(NC9CCC(=O)NC9=O)cc8C#N)CC7)CC6)cc5)CC3)n4C)ccc2[nH]1 (stereo partly drawn) [Example 2i2, 5-((2,6-dioxopiperidin-3-yl)amino)-2-(4-((1-(4-(1-((S)-1-(4-(2-(methoxymethyl)-1H-benzo[d]-imidazol-5-yl)-1-methyl-1H-pyrrolo[2,3-b]pyridin-2-yl)ethyl)piperidin-4-yl)benzoyl)piperidin-4-yl)methyl)-piperazin-1-yl)benzonitrile]",30 to 40
2,"C[C@@H](c1cc2c(-c3ccc(N)nc3)ccnc2n1C)N1CCC(c2ccc(C(=O)N3CCC(CN4CCN(c5ccc(NC6CCC(=O)NC6=O)cc5C#N)CC4)CC3)cc2)CC1 (stereo partly drawn) [Example 2i3, 2-(4-((1-(4-(1-((S)-1-(4-(6-aminopyridin-3-yl)-1-methyl-1H-pyrrolo[2,3-b]pyridin-2-yl)-ethyl)-piperidin-4-yl)benzoyl)piperidin-4-yl)methyl)piperazin-1-yl)-5-((2,6-dioxopiperidin-3-yl)amino)-benzonitrile]",30 to 40
3,"C[C@@H](c1cc2c(-c3ccc(N)nc3)ccnc2n1C)N1CCC(c2ccc(C(=O)N3CCC(CN4CCN(c5ccc(NC6CCC(=O)NC6=O)cc5Cl)CC4)CC3)cc2)CC1 (stereo partly drawn) [Example 2i6, 3-((4-(4-((1-(4-(1-((S)-1-(4-(6-aminopyridin-3-yl)-1-methyl-1H-pyrrolo[2,3-b]pyridin-2-yl)-ethyl)piperidin-4-yl)benzoyl)piperidin-4-yl)methyl)piperazin-1-yl)-3-chlorophenyl)amino)piperidine-2,6-dione]",70 to 80
4,"C[C@@H](c1cc2c(-c3ccc(N)nc3)ccnc2n1C)N1CCC(c2ccc(C(=O)N3CCC(CN4CCN(c5ccc(NC6CCC(=O)NC6=O)cc5C(F)(F)F)CC4)CC3)cc2)CC1 (stereo partly drawn) [Example 2i7, 3-((4-(4-((1-(4-(1-((S)-1-(4-(6-aminopyridin-3-yl)-1-methyl-1H-pyrrolo[2,3-b]pyridin-2-yl)-ethyl)-piperidin-4-yl)benzoyl)piperidin-4-yl)methyl)piperazin-1-yl)-3-(trifluoromethyl)phenyl)amino)-piperidine-2,6-dione]",40 to 50
5,"CN(C(=O)c1ccc(C2CCN(Cc3cc4c(-c5ccc6[nH]ncc6c5)ccnc4n3C)CC2)cc1)c1ccc(C2CCN(c3ccc(NC4CCC(=O)NC4=O)cc3F)CC2)cc1 (stereo not shown) [Example 2j1, 4-(1-((4-(1H-indazol-5-yl)-1-methyl-1H-pyrrolo[2,3-b]pyridin-2-yl)methyl)piperidin-4-yl)-N-(4-(1-(4-((2,6-dioxopiperidin-3-yl)amino)-2-fluorophenyl)piperidin-4-yl)phenyl)-N-methylbenzamide]",70 to 80
6,"CN(C(=O)c1ccc(C2CCN(Cc3cc4c(-c5ccc6[nH]ncc6c5)ccnc4n3C)CC2)cc1)c1ccc(C2CCN(c3ccc(NC4CCC(=O)NC4=O)cc3)CC2)cc1 (stereo not shown) [Example 2j2, 4-(1-((4-(1H-indazol-5-yl)-1-methyl-1H-pyrrolo[2,3-b]pyridin-2-yl)methyl)piperidin-4-yl)-N-(4-(1-(4-((2,6-dioxopiperidin-3-yl)amino)phenyl)piperidin-4-yl)phenyl)-N-methylbenzamide]",40 to 50

# More lines, now with the values ahead:
row,Emax [%],Structure (SMILES)
1,40 to 50,"COc1cc(N2CCN(CC3CCN(C(=O)c4ccc(C5CCN(Cc6cc7c(-c8ccc9[nH]ncc9c8)ccnc7n6C)CC5)cc4)CC3)CC2)c(F)cc1NC1CCC(=O)NC1=O (stereo not shown) [Example 2i1, 3-((4-(4-((1-(4-(1-((4-(1H-indazol-5-yl)-1-methyl-1H-pyrrolo[2,3-b]pyridin-2-yl)methyl)-piperidin-4-yl)benzoyl)piperidin-4-yl)methyl)piperazin-1-yl)-5-fluoro-2-methoxyphenyl)amino)-piperidine-2,6-dione]"
2,30 to 40,"Cn1c(CN2CCC(c3ccc(C(=O)N4CCC(CN5CCN(c6nccc(NC7CCC(=O)NC7=O)n6)CC5)CC4)cc3)CC2)cc2c(-c3ccc4[nH]ncc4c3)ccnc21 (stereo not shown) [Example 2k2, 3-((2-(4-((1-(4-(1-((4-(1H-indazol-5-yl)-1-methyl-1H-pyrrolo[2,3-b]pyridin-2-yl)methyl)-piperidin-4-yl)benzoyl)piperidin-4-yl)methyl)piperazin-1-yl)pyrimidin-4-yl)amino)piperidine-2,6-dione]"
3,30 to 40,"Cn1c(CN2CCC(c3ccc(C(=O)N4CCC(CN5CCN(c6ccnc(NC7CCC(=O)NC7=O)n6)CC5)CC4)cc3)CC2)cc2c(-c3ccc4[nH]ncc4c3)ccnc21 (stereo not shown) [Example 2k3, 3-((4-(4-((1-(4-(1-((4-(1H-indazol-5-yl)-1-methyl-1H-pyrrolo[2,3-b]pyridin-2-yl)methyl)-piperidin-4-yl)benzoyl)piperidin-4-yl)methyl)piperazin-1-yl)pyrimidin-2-yl)amino)piperidine-2,6-dione]"
4,60 to 70,"Cn1c(CN2CCC(c3ccc(C(=O)N4CCC(CN5CCN(c6cccc(NC7CCC(=O)NC7=O)c6)CC5)CC4)cc3)CC2)cc2c(-c3ccc4[nH]ncc4c3)ccnc21 (stereo not shown) [Example 2l1, 3-((3-(4-((1-(4-(1-((4-(1H-indazol-5-yl)-1-methyl-1H-pyrrolo[2,3-b]pyridin-2-yl)methyl)-piperidin-4-yl)benzoyl)piperidin-4-yl)methyl)piperazin-1-yl)phenyl)amino)piperidine-2,6-dione]"
